# Measured values reported in the supplement of paper PMC10307832.
# Key:
# Test in all cases: relative viability (nuclei count vs DMSO), 5 days (fraction); higher = more cells survive
# [1] = system: NCI-H2170
# Summary of the method: (§1)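 After 5 days of treatment, lung cancer cells in 1536-well plates were fixed and stained in a single step (final 0.05% Triton X-100, 1% formaldehyde, 1 ug/ml Hoechst) and their nuclei counted on 4× images. Treatment had been applied by pin tool the day after seeding as one drug alone or as a fixed anchor-drug dose with five library-drug doses (not always all listed) in √10 steps. Relative viability is the nuclei count of treated wells divided by that of vehicle wells, and values are medians of duplicate plates.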
# [2] = system: NCI-H647
# Summary of the method: as §1
# [3] = system: HARA
# Summary of the method: as §1
# [4] = system: NCI-H1395
# Summary of the method: as §1
# [5] = system: NCI-H1437
# Summary of the method: as §1
# [6] = system: NCI-H2405
# Summary of the method: as §1
# [7] = system: EKVX
# Summary of the method: as §1
# [8] = system: HCC-366
# Summary of the method: as §1
# [9] = system: NCI-H1792
# Summary of the method: as §1
# [10] = system: HCC-827
# Summary of the method: as §1
# [11] = system: NCI-H1355
# Summary of the method: as §1
# [12] = system: BEN
# Summary of the method: as §1
# [13] = system: NCI-H1993
# Summary of the method: as §1
# [14] = system: NCI-H2087
# Summary of the method: as §1
# [15] = system: LOU-NH91
# Summary of the method: as §1
# [16] = system: NCI-H2342
# Summary of the method: as §1
# [17] = system: NCI-H522
# Summary of the method: as §1
# [18] = system: NCI-H1734
# Summary of the method: as §1
smiles,measurement,setting,value
O=c1cc(-c2cccc3c2Sc2ccccc2S3)oc(N2CCOCC2)c1 + NC(=O)Nc1cc(-c2cccc(F)c2)sc1C(=O)N[C@H]1CCCNC1 [AZD7762] (partner 0.2 µM),relative viability,[1]; first compound 0.08 µM,0.842
same,relative viability,[1]; first compound 0.253 µM,0.868
same,relative viability,[1]; first compound 0.8 µM,0.996
same,relative viability,[1]; first compound 2.53 µM,0.792
same,relative viability,[1]; first compound 8 µM,0.804
same,relative viability,[2]; first compound 0.08 µM,0.545
same,relative viability,[2]; first compound 0.253 µM,0.422
same,relative viability,[2]; first compound 0.8 µM,0.456
same,relative viability,[2]; first compound 2.53 µM,0.197
same,relative viability,[2]; first compound 8 µM,0.49
same,relative viability,[3]; first compound 0.08 µM,0.234
same,relative viability,[3]; first compound 0.253 µM,0.327
same,relative viability,[3]; first compound 0.8 µM,0.364
same,relative viability,[3]; first compound 2.53 µM,0.208
same,relative viability,[3]; first compound 8 µM,0.256
same,relative viability,[4]; first compound 0.08 µM,0.384
same,relative viability,[4]; first compound 0.253 µM,0.395
same,relative viability,[4]; first compound 0.8 µM,0.378
same,relative viability,[4]; first compound 2.53 µM,0.373
same,relative viability,[4]; first compound 8 µM,0.418
same,relative viability,[5]; first compound 0.08 µM,1.07
same,relative viability,[5]; first compound 0.253 µM,1.23
same,relative viability,[5]; first compound 0.8 µM,1.2
same,relative viability,[5]; first compound 2.53 µM,1.17
same,relative viability,[5]; first compound 8 µM,1.23
same,relative viability,[6]; first compound 0.08 µM,0.691
same,relative viability,[6]; first compound 0.253 µM,0.808
same,relative viability,[6]; first compound 0.8 µM,0.731
same,relative viability,[6]; first compound 2.53 µM,0.64
same,relative viability,[6]; first compound 8 µM,0.661
same,relative viability,[7]; first compound 0.08 µM,0.67
same,relative viability,[7]; first compound 0.253 µM,0.709
same,relative viability,[7]; first compound 0.8 µM,0.74
same,relative viability,[7]; first compound 2.53 µM,0.669
same,relative viability,[7]; first compound 8 µM,0.717
same,relative viability,[8]; first compound 0.08 µM,0.258
same,relative viability,[8]; first compound 0.253 µM,0.32
same,relative viability,[8]; first compound 0.8 µM,0.302
same,relative viability,[8]; first compound 2.53 µM,0.118
same,relative viability,[8]; first compound 8 µM,0.222
same,relative viability,[9]; first compound 0.08 µM,0.541
same,relative viability,[9]; first compound 0.253 µM,0.632
same,relative viability,[9]; first compound 0.8 µM,0.549
same,relative viability,[9]; first compound 2.53 µM,0.55
same,relative viability,[9]; first compound 8 µM,0.583
same,relative viability,[10]; first compound 0.08 µM,0.199
same,relative viability,[10]; first compound 0.253 µM,0.196
same,relative viability,[10]; first compound 0.8 µM,0.165
same,relative viability,[10]; first compound 2.53 µM,0.122
same,relative viability,[10]; first compound 8 µM,0.188
same,relative viability,[11]; first compound 0.08 µM,0.703
same,relative viability,[11]; first compound 0.253 µM,0.915
same,relative viability,[11]; first compound 0.8 µM,0.743
same,relative viability,[11]; first compound 2.53 µM,0.554
same,relative viability,[11]; first compound 8 µM,0.756
same,relative viability,[12]; first compound 0.08 µM,0.694
same,relative viability,[12]; first compound 0.253 µM,0.656
same,relative viability,[12]; first compound 0.8 µM,0.647
same,relative viability,[12]; first compound 2.53 µM,0.618
same,relative viability,[12]; first compound 8 µM,0.734
same,relative viability,[13]; first compound 0.08 µM,0.707
same,relative viability,[13]; first compound 0.253 µM,0.763
same,relative viability,[13]; first compound 0.8 µM,0.556
same,relative viability,[13]; first compound 2.53 µM,0.749
same,relative viability,[13]; first compound 8 µM,0.728
same,relative viability,[14]; first compound 0.08 µM,1.25
same,relative viability,[14]; first compound 0.253 µM,1.46
same,relative viability,[14]; first compound 0.8 µM,1.07
same,relative viability,[14]; first compound 2.53 µM,1.31
same,relative viability,[14]; first compound 8 µM,1.25
same,relative viability,[15]; first compound 0.08 µM,0.764
same,relative viability,[15]; first compound 0.253 µM,0.778
same,relative viability,[15]; first compound 0.8 µM,0.697
same,relative viability,[15]; first compound 2.53 µM,0.714
same,relative viability,[15]; first compound 8 µM,0.786
same,relative viability,[16]; first compound 0.08 µM,0.415
same,relative viability,[16]; first compound 0.253 µM,0.466
same,relative viability,[16]; first compound 0.8 µM,0.545
same,relative viability,[16]; first compound 2.53 µM,0.529
same,relative viability,[16]; first compound 8 µM,0.541
same,relative viability,[17]; first compound 0.08 µM,0.821
same,relative viability,[17]; first compound 0.253 µM,0.926
same,relative viability,[17]; first compound 0.8 µM,0.864
same,relative viability,[17]; first compound 2.53 µM,0.654
same,relative viability,[17]; first compound 8 µM,0.813
same,relative viability,[18]; first compound 0.08 µM,0.512
same,relative viability,[18]; first compound 0.253 µM,0.541
same,relative viability,[18]; first compound 0.8 µM,0.581
same,relative viability,[18]; first compound 8 µM,0.63
